Consider 17 compounds from patent US20120214802A1, “PYRROLIDINE COMPOUNDS WHICH INHIBIT BETA-SECRETASE ACTIVITY AND METHODS OF USE THEREOF” (priority 2009, published 2012).

A word on the IC50: it is the point on the concentration scale where inhibition reaches its midpoint. The term Ki denotes a measure of affinity in units of concentration, obtained from inhibition or displacement.

Assay [1] concerns the target T1, memapsin 2 (Cricetulus griseus, UniProt G3IAK4).
T1 construct: endogenous in cells; host or cells: Chinese hamster ovary cells over-expressing human APP695 (London + Swedish)
The assay can be described thus: Cellular Aβ IC50 determination (Aβ40 sandwich ELISA). Conditions: CHO cells over-expressing human APP695 with London and Swedish mutations, 24 h, read-out: M2 IC50. In kind it is cell-based, Chinese hamster. As to the method:
The potency of compounds against memapsin 2 activity was determined in a cellular assay of Aβ production. […] Chinese hamster ovary cells that over-express human APP695 with the London and Swedish mutations were seeded in multi-well plates at 10% confluency. Compounds are dissolved in DMSO to concentrations near 1 mM, and diluted into culture media to a final concentration near 4 μM (final 0.4% DMSO). Compounds were diluted serially and applied to cells in multi-well plates 48 h after seeding. Incubation was continued in 5% CO2 at 37° C. for 24 h. Aliquots were removed and assayed for […] using a sandwich ELISA (BioSource International). Amount of Aβ40 over the range of concentration of compounds, relative to control incubations, were fit to a 4-parameter IC50 model.

The target of assay [2] is memapsin 2 (Homo sapiens, UniProt P56817). The assay can be described thus: Inhibition of memapsin 2 beta-secretase activity (fluorogenic substrate FS-2). In kind it is biochemical. Conditions: pH 4, 37° C., read-out: M2 Ki. As to the method:
Potency of compounds were determined by measurement of their inhibition of memapsin 2 activity toward a fluorescent substrate. Kinetic inhibition experiments were performed using the procedure as described in Ermolieff, et al. (Biochemistry 39:12450-12456 (2000), the teachings of which are incorporated hereby in their entirety). Briefly, assays were performed at pH 4, 37° C., by pre-incubation of memapsin 2 enzyme with compound for 20 minutes. Activity measurements were initiated by addition of a fluorogenic substrate FS-2 (Bachem Americas, Torrance, Calif.) MCA-SEVNLDAEFR-DNP (SEQ ID NO.: 2). The substrate was derived from 10 amino acids of the human amyloid precursor protein (APP), with the Swedish variant amino acids at the beta-secretase cleavage site. The terminal amino acid was modified from arginine to lysine to facilitate derivatization with a functional group for detection by autofluorescence. The amino acid sequence of the “core” peptide of the substrate is SEVNLDAEFK (SEQ ID NO.: 3). The amino terminus was derivatized with (7-methoxycoumarin-4-yl)acetyl (MCA), and the epsilon amine of the lysine side chain of the terminal residue (K in sequence SEVNLDAEFK (SEQ ID NO.: 3)) was derivatized with 2,4-dinitorphenyl (DNP).

Sequence of memapsin 2 (Homo sapiens, UniProt P56817) (P56817 46-501): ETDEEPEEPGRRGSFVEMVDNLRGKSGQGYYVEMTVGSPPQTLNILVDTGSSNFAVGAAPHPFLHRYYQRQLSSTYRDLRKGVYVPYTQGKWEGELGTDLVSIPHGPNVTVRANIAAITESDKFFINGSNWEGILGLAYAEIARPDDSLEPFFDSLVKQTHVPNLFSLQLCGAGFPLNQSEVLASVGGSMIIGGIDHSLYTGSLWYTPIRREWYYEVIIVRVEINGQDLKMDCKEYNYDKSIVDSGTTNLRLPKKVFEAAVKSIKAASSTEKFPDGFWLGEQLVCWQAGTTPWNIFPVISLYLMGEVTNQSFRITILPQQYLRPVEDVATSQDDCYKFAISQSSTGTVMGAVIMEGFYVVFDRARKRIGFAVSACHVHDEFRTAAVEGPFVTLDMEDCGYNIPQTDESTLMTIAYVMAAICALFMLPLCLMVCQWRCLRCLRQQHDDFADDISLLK
T1 sequence (G3IAK4 22-501): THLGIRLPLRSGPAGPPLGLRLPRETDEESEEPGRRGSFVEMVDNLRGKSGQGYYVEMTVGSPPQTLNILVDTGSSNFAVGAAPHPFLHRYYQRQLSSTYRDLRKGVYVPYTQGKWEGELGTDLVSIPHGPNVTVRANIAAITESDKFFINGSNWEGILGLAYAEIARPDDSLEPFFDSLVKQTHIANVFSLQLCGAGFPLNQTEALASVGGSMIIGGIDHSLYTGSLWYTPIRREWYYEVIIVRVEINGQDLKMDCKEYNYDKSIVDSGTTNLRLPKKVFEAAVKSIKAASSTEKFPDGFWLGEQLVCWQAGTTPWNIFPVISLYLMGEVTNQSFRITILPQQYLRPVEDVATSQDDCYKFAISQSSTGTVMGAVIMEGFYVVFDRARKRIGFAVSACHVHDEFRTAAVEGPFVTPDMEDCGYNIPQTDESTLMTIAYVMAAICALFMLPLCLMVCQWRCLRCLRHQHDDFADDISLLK

On to `Cc1csc([C@H]2CCCN2C(=O)c2cc(C(=O)N[C@@H](Cc3ccccc3)[C@H](O)[C@H]3CCCN3)cc(C3CC3)c2)n1` [1-50, 3-cyclopropyl-N-((1R,2S)-1-hydroxy-3-phenyl-1-((R)-pyrrolidin-2-yl)propan-2-yl)-5-((R)-2-(4-methylthiazol-2-yl)pyrrolidine-1-carbonyl)benzamide], for which, at memapsin 2 [1], the IC50 was greater than 1000 nM. Also, the Ki at memapsin 2 [2] was less than 250 nM.
As for `Cc1coc([C@H]2CCCN2C(=O)c2cc(C(=O)N[C@@H](Cc3ccccc3)[C@H](O)[C@H]3CCCN3)cc(-c3ccccn3)c2)n1` [1-24, N-((1R,2S)-1-hydroxy-3-phenyl-1-((R)-pyrrolidin-2-yl)propan-2-yl)-3-((R)-2-(4-methyloxazol-2-yl)pyrrolidine-1-carbonyl)-5-(pyridin-2-yl)benzamide], the IC50 on memapsin 2 [1] was less than 500 nM. Moreover, the inhibitory constant (Ki) on memapsin 2 [2] is less than 250 nM.
For the compound `C[C@@H](NC(=O)c1cc(C(=O)N[C@@H](Cc2ccccc2)[C@H](O)[C@H]2CCCN2C(=O)OC(C)(C)C)cc(N(C)S(C)(=O)=O)c1)c1ccccc1` [1-5, (R)-tert-butyl 2-((1S,2S)-1-hydroxy-2-(3-(N-methylmethylsulfonamido)-5-((R)-1-phenylethylcarbamoyl)benzamido)-3-phenylpropyl)pyrrolidine-1-carboxylate], the IC50 on memapsin 2 [1] was greater than 1000 nM. On memapsin 2 [2], the Ki is greater than 750 nM.
As for `Cc1csc(CN(C)C(=O)c2cccc(C(=O)N[C@@H](Cc3ccccc3)[C@H](O)[C@H]3CCCN3)c2)n1` [1-2, N1-((1R,2S)-1-hydroxy-3-phenyl-1-((R)-pyrrolidin-2-yl)propan-2-yl)-N3-methyl-N3-((4-methylthiazol-2-yl)methyl)isophthalamide], the IC50 on memapsin 2 [1] is greater than 1000 nM. In addition, the inhibition constant (Ki) at memapsin 2 [2] was in the range of 250 to 750 nM.
As for `Cc1csc([C@H]2CCCN2C(=O)c2cccc(C(=O)N[C@@H](Cc3ccccc3)[C@H](O)[C@@H]3CCCN3)c2)n1` [1-48, N-((1R,2S)-1-hydroxy-3-phenyl-1-((S)-pyrrolidin-2-yl)propan-2-yl)-3-((R)-2-(4-methylthiazol-2-yl)pyrrolidine-1-carbonyl)benzamide], on memapsin 2 [1], the concentration for half-maximal inhibition (IC50) was greater than 1000 nM. Further, at memapsin 2 [2], the Ki is greater than 750 nM.
For the compound `Cc1csc([C@H]2CCCN2C(=O)c2cc(C(=O)N[C@@H](Cc3ccccc3)[C@H](O)[C@H]3CCCN3)cc(N3CCC(F)(F)CC3)c2)n1` [1-46, 3-(4,4-difluoropiperidin-1-yl)-N-((1R,2S)-1-hydroxy-3-phenyl-1-((R)-pyrrolidin-2-yl)propan-2-yl)-5-((R)-2-(4-methylthiazol-2-yl)pyrrolidine-1-carbonyl)benzamide], on memapsin 2 [1], the IC50 is 500 to 1000 nM. Further, the inhibition constant Ki on memapsin 2 [2] is 250 to 750 nM.
The like results for `Cc1csc([C@H]2CCCN2C(=O)c2cc(C(=O)N[C@@H](Cc3ccccc3)[C@H](O)[C@H]3CCCN3)cc(N(C)C)c2)n1` [1-42, 3-(dimethylamino)-N-((1R,2S)-1-hydroxy-3-phenyl-1-((R)-pyrrolidin-2-yl)propan-2-yl)-5-((R)-2-(4-methylthiazol-2-yl)pyrrolidine-1-carbonyl)benzamide] were, in that order, greater than 1000 nM and 250 to 750 nM.
On to `Cc1csc([C@H]2CCCN2C(=O)c2cccc(C(=O)N[C@@H](Cc3ccccc3)[C@H](O)[C@H]3CC[C@@H](C)N3)c2)n1` [1-51, N-((1R,2S)-1-hydroxy-1-((2R,5R)-5-methylpyrrolidin-2-yl)-3-phenylpropan-2-yl)-3-((R)-2-(4-methylthiazol-2-yl)pyrrolidine-1-carbonyl)benzamide], for which, at memapsin 2 [1], the IC50 was greater than 1000 nM. In addition, on memapsin 2 [2], the Ki is greater than 750 nM.
The like results for `Cc1csc(CN(C)C(=O)c2cccc(C(=O)N[C@@H](Cc3ccccc3)[C@H](O)[C@H]3CCCN3C(=O)OC(C)(C)C)c2)n1` [1-1, (R)-tert-butyl 2-((1S,2S)-1-hydroxy-2-(3-(methyl((4-methylthiazol-2-yl)methyl)carbamoyl)benzamido)-3-phenylpropyl)pyrrolidine-1-carboxylate] were, in that order, greater than 1000 nM and greater than 750 nM.
For the compound `Cc1cc(C(=O)N[C@@H](Cc2ccccc2)[C@H](O)[C@H]2CCCN2C(=O)OC(C)(C)C)cc(C(=O)N2CCC[C@@H]2c2nc(C)co2)c1` [1-6, (R)-tert-butyl 2-((1S,2S)-1-hydroxy-2-(3-methyl-5-((R)-2-(4-methyloxazol-2-yl)pyrrolidine-1-carbonyl)benzamido)-3-phenylpropyl)pyrrolidine-1-carboxylate], on memapsin 2 [1], the concentration for half-maximal inhibition (IC50) is greater than 1000 nM. Further, the Ki on memapsin 2 [2] was greater than 750 nM.
Turning to `Cc1csc([C@H]2CCCN2C(=O)c2cccc(C(=O)N[C@@H](Cc3cccc(F)c3)[C@H](O)[C@H]3CCCN3)c2)n1` [1-53, N-((1R,2S)-3-(3-fluorophenyl)-1-hydroxy-1-((R)-pyrrolidin-2-yl)propan-2-yl)-3-((R)-2-(4-methylthiazol-2-yl)pyrrolidine-1-carbonyl)benzamide], the IC50 on memapsin 2 [1] was 500 to 1000 nM. The inhibition constant Ki at memapsin 2 [2] was less than 250 nM.
With `Cc1csc(CN(C)C(=O)c2cc(C(=O)N[C@@H](Cc3ccccc3)[C@H](O)[C@H]3CCCN3C(=O)OC(C)(C)C)cc(-c3ncco3)c2)n1` [1-7, (R)-tert-butyl 2-((1S,2S)-1-hydroxy-2-(3-(methyl((4-methylthiazol-2-yl)methyl)carbamoyl)-5-(oxazol-2-yl)benzamido)-3-phenylpropyl)pyrrolidine-1-carboxylate], the IC50 at memapsin 2 [1] was greater than 1000 nM. Moreover, at memapsin 2 [2], the inhibitory constant (Ki) was greater than 750 nM.
In the case of `Cc1csc(CN(C)C(=O)c2cccc(C(=O)N[C@@H](Cc3ccccc3)[C@H](O)[C@H]3C[C@@H](O)CN3)c2)n1` [1-10, N1-((1R,2S)-1-hydroxy-1-((2R,4R)-4-hydroxypyrrolidin-2-yl)-3-phenylpropan-2-yl)-N3-methyl-N3-((4-methylthiazol-2-yl)methyl)isophthalamide], the IC50 on memapsin 2 [1] is greater than 1000 nM. For the same compound, the Ki on memapsin 2 [2] is 250 to 750 nM.
As to `Cc1coc([C@H]2CCCN2C(=O)c2cccc(C(=O)N[C@@H](Cc3ccccc3)[C@H](O)[C@H]3CCCN3)c2)n1` [1-4, N-((1R,2S)-1-hydroxy-3-phenyl-1-((R)-pyrrolidin-2-yl)propan-2-yl)-3-((R)-2-(4-methyloxazol-2-yl)pyrrolidine-1-carbonyl)benzamide], the IC50 on memapsin 2 [1] was greater than 1000 nM. Also, on memapsin 2 [2], the inhibition constant (Ki) is 250 to 750 nM.
Regarding `CO[C@H]1CN[C@@H]([C@H](O)[C@H](Cc2ccccc2)NC(=O)c2cccc(C(=O)N3CCC[C@@H]3c3nc(C)cs3)c2)C1` [1-82, N-((1S,2S)-1-hydroxy-1-((2R,4R)-4-methoxypyrrolidin-2-yl)-3-phenylpropan-2-yl)-3-((R)-2-(4-methylthiazol-2-yl)pyrrolidine-1-carbonyl)benzamide], at memapsin 2 [2], the Ki is less than 250 nM.
On the same count and under the same terms, next, `Cc1csc([C@H]2CCCN2C(=O)c2cccc(C(=O)N[C@@H](Cc3ccc(F)cc3)[C@H](O)[C@H]3CCCN3)c2)n1` [1-65, N-((1R,2S)-3-(4-fluorophenyl)-1-hydroxy-1-((R)-pyrrolidin-2-yl)propan-2-yl)-3-((R)-2-(4-methylthiazol-2-yl)pyrrolidine-1-carbonyl)benzamide]: 250 to 750 nM; `Cc1csc(CN(C)C(=O)c2cc(C(=O)N[C@@H](Cc3ccccc3)[C@H](O)[C@H]3CCCN3)cc(-c3ccc(F)cc3F)c2)n1` [1-30, 2′,4′-difluoro-N3-((1R,2S)-1-hydroxy-3-phenyl-1-((R)-pyrrolidin-2-yl)propan-2-yl)-N5-methyl-N5-((4-methylthiazol-2-yl)methyl)biphenyl-3,5-dicarboxamide]: less than 250 nM.
